The values below come from PubChem BioAssay AID179 (DTP/NCI, 2004).

The source made the active and inactive calls.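 Rule for the calls: active = compounds giving half or more protection of infected cells from virus-caused growth loss, again on retest; inactive = the rest.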

The subject of the test is CEM cells HIV-1 protection, formazan growth assay. The test is described as follows: NCI AIDS Antiviral Assay. Particulars: for IC50: measured here: growth of uninfected CEM cells. In a few lines:
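Five concentrations of each compound were applied to infected and uninfected human CEM cells. Protection from HIV-1 was judged from growth measured with a soluble formazan assay.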

By EC50 is commonly meant the concentration needed to bring the measured effect to its halfway point. As a reminder, the IC50 is the concentration at which inhibition is half-maximal. Turning to `OCC(O)COc1c(Cl)cc(Cl)cc1Cl` (stereo not given), the EC50 is over 251 µM and the concentration for half-maximal inhibition (IC50) is over 251 µM.

Turning to `ON=C1CCCCC(=NO)CCCC1`, the EC50 is over 200 µM and the IC50 is over 200 µM.

With `COC(=O)C1=CC[C@@H]2C(C(=O)O)=CO[C@@H](OC3OC(CO)C(O)C(O)C3O)[C@H]12` (stereo not given in full), the EC50 is over 200 µM and the half-maximal inhibitory concentration (IC50) is over 200 µM.

With `CCCCCC/C=C/CCCCCCCc1cccc(O)c1C(=O)O`, the EC50 was over 102 µM and the IC50 turned out to be 63.1 µM.

For the molecule `CCOc1ccc(NC(=S)/N=C/C(C(=O)Nc2ccccc2C)=C(\C)O)cc1`, the EC50 was over 200 µM and the concentration for half-maximal inhibition (IC50) is over 200 µM.

`COC1CC(CC(C)O)CN(C#N)CCc2c1[nH]c1ccccc21` (stereo not given): the EC50 was over 79.4 µM and the IC50 was over 79.4 µM.

In the case of `N#Cc1nn(C(N)=O)c(N)c1C#N`, the EC50 was over 200 µM and the IC50 is over 200 µM.

Consider `O=[N+]([O-])c1ccc2c(c1)C(N1CCN(CCO)CC1)Cc1ccc(F)cc1S2` (stereo not given), for which the EC50 was over 200 µM and the 50% inhibitory concentration (IC50) came to 22.4 µM.

As to `O=C1NC(CO)(CO)CO1`, the EC50 is over 200 µM and the half-maximal inhibitory concentration (IC50) is over 200 µM.

Regarding `C=Cc1cc[n+](CCCCCCCCCCCC)cc1`, the EC50 is over 174 µM and the IC50 is 102 µM.

With `Cc1nc(N)nc2c1CCC(O)S2` (stereo not given), the EC50 is over 200 µM and the half-inhibitory concentration (IC50) came to 1.02 µM.

In the case of `O=C1CCCC/C1=C/c1ccc(Cl)cc1`, the result was inactive.

Regarding `CN(C)CC1CCC/C1=N\O` (stereo not given), the EC50 is over 1580 µM and the half-maximal inhibitory concentration (IC50) turned out to be 1380 µM.

For the molecule `N#Cc1cccc(-n2[nH]c(=O)ccc2=O)c1`, the EC50 was over 200 µM and the IC50 is over 200 µM.

Consider `CCOc1ccccc1/C=C1\NC(=O)NC1=O`, for which the EC50 is over 200 µM and the 50% inhibitory concentration (IC50) is over 200 µM.

As to `CC(C)=CCc1c(O)c(CC2=C(O)C(C)=C(O)C(CC=C(C)C)(C(=O)C(C)C)C2=O)c(O)c(C(=O)C(C)C)c1O` (stereo not given), the EC50 was over 100 µM and the 50% inhibitory concentration (IC50) was found to be 4.57 µM.

As for `O=C1c2ccccc2C2(O)N(c3ccccc3)C(=S)N(c3ccccc3)C12O` (stereo not given), the EC50 is over 646 µM and the 50% inhibitory concentration (IC50) came to 316 µM.

Take `C=C1C(C2(C)C=CC(=O)OC3(C)COC(=O)CC32)C(OC=O)C(OC(=O)C(O)C(C)CC)C2(C)C(c3ccoc3)CC(OC(C)=O)C12O` (stereo not given): the outcome was inactive.

Take `COc1ccc2[nH]c3c(C)cc([N+](=O)[O-])c(C)c3c2c1`: the EC50 was over 200 µM and the IC50 came out at 10.7 µM.

As to `O=S1(=O)OCCCCO1`, the EC50 is over 1620 µM and the IC50 was over 1620 µM.

Consider `O=S(O)CCCCCSSc1ccccc1`, for which the result was inactive.

As for `O=C(OCc1ccccc1)N1N=NC2C1C1CC(OCc3ccccc3)(OCc3ccccc3)C2O1` (stereo not given), the EC50 is over 14.8 µM and the half-inhibitory concentration (IC50) was over 14.8 µM.

Regarding `CO/C=C/CCCN(CC#N)Cc1ccccc1`, the EC50 was over 27.5 µM and the concentration for half-maximal inhibition (IC50) is over 27.5 µM.

Take `COc1ccc(CC2C(=O)NC(C)C(=O)N(C)C3C(=O)N(C)C(Cc4ccc(O)c(c4)Oc4ccc(cc4)C3O)C(=O)NC(C)C(=O)NC(C)C(=O)N2C)cc1` (stereo not given): the EC50 is over 0.2 µM and the half-maximal inhibitory concentration (IC50) was 0.0631 µM.

As to `Nc1nc(N)c(-c2ccccc2)c(CCC(=O)Nc2ccc(Cl)cc2)n1`, the EC50 is over 490 µM and the half-inhibitory concentration (IC50) came out at 24 µM.

Take `OC(Cc1cc(CC(O)(C(F)(F)F)C(F)(F)F)nc(CC(O)(C(F)(F)F)C(F)(F)F)c1)(C(F)(F)F)C(F)(F)F`: the EC50 is over 200 µM and the half-inhibitory concentration (IC50) worked out at 1.02 µM.

Turning to `CC(C)(CC(O)C#N)/[N+]([O-])=[N+](\[O-])C(C)(C)CC(O)C#N` (stereo not given), the outcome was inactive.

For the molecule `CC1=CC2OC3CC(OC(=O)/C=C/C=C/C(OCCC4=CC(=O)OC4)C(C)O)C(C)(C2(CO)CC1)C31CO1` (stereo not given), the EC50 was over 67.6 µM and the IC50 was 1.51 µM.

On to `O=C(Oc1ccc(Cl)cc1[N+](=O)[O-])c1ccccc1`, for which the outcome was inactive.

Regarding `COC(=O)C1C(NCc2ccccc2)=CC(C)(C)C(C(=O)OC)C1c1ccccc1` (stereo not given), the EC50 is over 200 µM and the half-inhibitory concentration (IC50) was 166 µM.
